Test results: publication PMC12299506, “Flipping the Target: Evaluating Natural LDHA Inhibitors for Selective LDHB Modulation” (Molecules, 2025)

Assays:
[1] = target: T1, LDHB (Homo sapiens, UniProt P07195); test: LDHB activity assay, 96-well endpoint colorimetric (lactate to pyruvate, NADH/NBT/PMS formazan, 570 nm); type: biochemical; conditions: for IC50: dose-response, nonlinear regression
T1 construct: purchased R&D Systems (Minneapolis, MN, USA) 9205-HB
Source text: This assay is based on the detection of NADH generated during the enzymatic conversion of lactate to pyruvate (via reduction of NAD^+), which subsequently reacts with nitro blue tetrazolium (NBT) in the presence of phenazine methosulfate (PMS). This reaction produces a blue-purple formazan dye with a maximum absorbance at approximately 570 nm.
Unless otherwise specified, all chemicals were obtained from Sigma-Aldrich (St. Louis, MO, USA). Recombinant human LDHB (Catalog #: 9205-HB) was purchased from R&D Systems (Minneapolis, MN, USA). […] AXKO-0046 (Catalog #: HY-147216A) was obtained from MedChemExpress (Monmouth Junction, NJ, USA).
This assay quantifies LDHB activity by measuring NADH generation resulting from the conversion of lactate to pyruvate, a reaction catalyzed by LDHB. The produced NADH reacts with nitro blue tetrazolium (NBT) in the presence of phenazine methosulfate (PMS), generating a blue-purple formazan dye detectable at approximately 570 nm.
The reaction was performed in a buffer containing 50 mM CHES (pH 9.6), 150 mM NaCl, 300 μM NBT, 30 μM PMS, and 0.13% gelatin (used to prevent formazan precipitation). Each well was loaded with 90 μL of the reaction buffer followed by 25 μL of a substrate solution comprising 10 mM NAD^+ and 250 mM sodium lactate in the same buffer. Next, 5 μL of the test compound at varying concentrations was added; the buffer alone was used in the control wells. The plates were incubated for 30 s at 25 °C in the dark before measuring the initial absorbance at 570 nm (Ainitial) using a microplate reader (PerkinElmer, Waltham, MA, USA). The reaction was initiated by adding 2 μL of 7.5 μM LDHB. After a 5 min incubation with continuous shaking, a second absorbance measurement (Afinal) was taken.
The difference in absorbance (ΔA570 = Afinal − Ainitial) was used to calculate the amount of NADH produced by referencing a standard curve (0–15 nmol NADH). Readings were corrected for background using a blank lacking LDHB. One unit of enzyme activity was defined as the amount of enzyme producing 1 μmol of NADH per minute at 25 °C. LDHB activity (mU/mL) was calculated using the following Equation (1):(1) LDH activity(mU/mL)=[NADH](nmol)/Tfinal−Tinitial(min)×V(mL)=nmol/min×mL where [NADH] is the amount (in nmol) of NADH that is released between Tfinal and Tinitial, and V is the sample volume (LDHB in mL) added in each well of the 96-well plate.
IC50 values for each compound were calculated using GraphPad Prism v8.0.2 (GraphPad Software Inc., San Diego, CA, USA) by fitting dose–response curves to the enzymatic activity data via nonlinear regression analysis. All the measurements were performed in triplicate.

[2] = tested on: LDHA; set-up: method as in PMID 34571279; conditions: EMMA; cited from earlier work
[3] = tested on: LDHA; set-up: method as in PMID 39054614; conditions: enzymatic assays; cited from earlier work
[4] = target: T1, LDHB; test: Effect of pre-incubation time on LDHB inhibition; type: biochemical; conditions: pre-incubation with LDHB for 120 min, compound 50 µM
Experimental: Supplementary Figure S2. The eﬀect of pre-incubation time on the inhibitory activity of […]
Each compound (50 µΜ) was incubated with […] of LDHB in a 10 µL reaction within a 96-well plate for varying times. The reaction was carried out in 80 µL of 50 mM CHES buﬀer (pH 9.6) containing 150 mM NaCl, 300 µΜ NBT, 30 µΜ PMS, and 0.13% gelatin, with 10 µL of substrate mix (10 mM NAD+ and 250 mM sodium lactate) added to initiate the reaction. LDHB activity was measured as described in the text, with control wells lacking inhibitors. Statistical signiﬁcance was determined using one way ANONA (p < 0.05), with ʹn.s.ʹ indicating non- […]
(1 picture or pasted object on this page, not shown here)

[5] = target: T1, LDHB; test: LDHB kinetic studies (substrate competition, Michaelis-Menten, mixed-model inhibition); type: biochemical; conditions: for mechanism of LDHB inhibition: Michaelis-Menten analysis, vs lactate and NAD+; for Vmax, NAD+: NAD+ varied, 25 mM sodium lactate; for Vmax, lactate: lactate varied, NAD+ 1 mM; for Ki / α (alpha factor, mechanism of inhibition): mixed-model inhibition fit; for α (alpha factor, mechanism of inhibition): α < 1 uncompetitive
Experimental: These kinetic studies followed the classical Michaelis–Menten framework. For NAD^+ titration, assays were performed using eight NAD^+ concentrations (120, 240, 360, 480, 700, 900, 1000, and 1200 μM) in the presence of 25 mM sodium lactate. For lactate titration, eight lactate concentrations (2.5, 5, 10, 15, 20, 25, 37.5, and 50 mM) were evaluated with a fixed NAD^+ concentration of 1 mM. Each reaction was carried out with 2.5 nM LDHB and increasing concentrations of either inhibitor (5–100 μM), followed by incubation at room temperature for 6.5 min. Initial reaction velocities were determined and fitted to a nonlinear Michaelis–Menten model to extract apparent kinetic parameters (Km and Vmax) using GraphPad Prism v8.0.2 (GraphPad Software Inc., San Diego, CA, USA). Lineweaver–Burk plots (1/V vs. 1/[S]) were also generated to visualize shifts in enzyme kinetics. To complement these analyses, the data were further examined using a mixed-model inhibition approach within GraphPad Prism. This model, which avoids the distortions associated with reciprocal transformations, evaluates inhibition kinetics using polynomial regression and is governed by the following equations [70]. The mixed-model fit is described by Equations (2)–(4), and contains competitive, uncompetitive, and noncompetitive inhibition terms:(2) Vmaxapp=Vmax/(1+I/a·Ki) (3) Kmapp=Km·(1+I/Ki)/(1+I/a·Ki) (4) Y=Vmaxapp·X/(Kmapp+X)
In the above equations, Vmaxapp and Kmapp are the maximum enzyme activity and Michaelis–Menten constant, respectively, in the presence of an inhibitor; Vmax and Km represent the maximum enzyme velocity and Michaelis–Menten constant, respectively, in the absence of an inhibitor; and Ki is the inhibition constant. In addition, X is the substrate concentration, Y is the enzyme activity, I is the inhibitor concentration, and alpha (α) is a coefficient that defines the mechanism of inhibition.

[6] = target: LDHA; conditions: cited from earlier work
[7] = target: LDHC; conditions: cited from earlier work

T1 sequence (P07195 whole entry): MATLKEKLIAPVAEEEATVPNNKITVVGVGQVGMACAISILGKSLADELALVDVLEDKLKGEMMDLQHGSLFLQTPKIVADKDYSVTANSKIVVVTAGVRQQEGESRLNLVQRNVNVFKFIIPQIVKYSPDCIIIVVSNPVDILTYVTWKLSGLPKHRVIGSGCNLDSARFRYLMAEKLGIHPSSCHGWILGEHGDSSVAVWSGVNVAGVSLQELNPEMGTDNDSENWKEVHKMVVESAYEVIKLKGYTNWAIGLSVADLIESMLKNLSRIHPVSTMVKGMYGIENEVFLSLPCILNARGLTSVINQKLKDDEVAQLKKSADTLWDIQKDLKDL

SMILES | inhibition at 50 µM ([1]; compound at 50 µM) [%] | IC50 [1] [µM] | inhibition rate of LDHA activity [2] | IC50 [3] [nM] | change of inhibitory effect with longer pre-incubation time [4] | mechanism of LDHB inhibition [5] | Vmax, NAD+ ([5]; inhibitor 10 μM) [mU/mL] | Vmax, NAD+ ([5]; inhibitor 20 μM) [mU/mL] | Vmax, NAD+ ([5]; inhibitor 30 μM) [mU/mL] | Vmax, NAD+ ([5]; inhibitor 40 μM) [mU/mL] | Vmax, NAD+ ([5]; inhibitor 50 μM) [mU/mL] | Vmax, NAD+ ([5]; inhibitor 75 μM) [mU/mL] | Vmax, NAD+ ([5]; inhibitor 100 μM) [mU/mL] | Vmax, lactate ([5]; inhibitor 10 μM) [mU/mL] | Vmax, lactate ([5]; inhibitor 20 μM) [mU/mL] | Vmax, lactate ([5]; inhibitor 30 μM) [mU/mL] | Vmax, lactate ([5]; inhibitor 40 μM) [mU/mL] | Vmax, lactate ([5]; inhibitor 50 μM) [mU/mL] | Vmax, lactate ([5]; inhibitor 75 μM) [mU/mL] | Vmax, lactate ([5]; inhibitor 100 μM) [mU/mL] | further results
c1ccc(CNCCc2c(CNC3CCCCCC3)[nH]c3ccccc23)cc1 [AXKO-0046, reference compound] | ~75 | 0.00556 | – | – | – | – | – | – | – | – | – | – | – | – | – | – | – | – | – | – | –
CC[C@@]1(O)C(=O)OCc2c1cc1n(c2=O)Cc2cc3ccccc3nc2-1 [Camptothecin] | – | – | no inhibitory effect | – | – | – | – | – | – | – | – | – | – | – | – | – | – | – | – | – | inhibition of LDHB activity ([1]; compound at 50 µM): minimal inhibition
O=c1c(O)c(-c2ccc(O)c(O)c2)oc2cc(O)ccc12 [Fisetin] | ~22 | – | – | 66 | – | – | – | – | – | – | – | – | – | – | – | – | – | – | – | – | –
O=c1cc(-c2ccc(O)c(O)c2)oc2cc(O)cc(O)c12 [Luteolin] | ~55 | 32.2 | 50.7% | 1790 | did not increase | uncompetitive inhibition | 945 ± 27 | 868 ± 35 | 774 ± 32 | 664 ± 40 | 563 ± 29 | 456 ± 27 | 417 ± 22 | 942 ± 31 | 888 ± 16 | 832 ± 21 | 749.2 ± 17 | 624 ± 24 | 506 ± 15 | 406 ± 22 | Ki ([5]; with NAD+): 194 µM; α (alpha factor, mechanism of inhibition) ([5]; with NAD+): 0.34; Ki ([5]; with lactate): 349 µM; α (alpha factor, mechanism of inhibition) ([5]; with lactate): 0.21
O=c1c(O)c(-c2ccc(O)c(O)c2)oc2cc(O)cc(O)c12 [Quercetin] | ~50 | 37.7 | 53.6% | 33600 | did not increase | uncompetitive inhibition | 952 ± 36 | 861 ± 22 | 761 ± 52 | 701 ± 44 | 605 ± 46 | 504 ± 44 | 454 ± 33 | 938 ± 29 | 881 ± 19 | 791 ± 37 | 689 ± 53 | 621 ± 23 | 557 ± 37 | 478 ± 26 | Ki ([5]; with NAD+): 539 µM; α (alpha factor, mechanism of inhibition) ([5]; with NAD+): 0.14; Ki ([5]; with lactate): 265 µM; α (alpha factor, mechanism of inhibition) ([5]; with lactate): 0.31
Cc1cc2c(C(C)C)c(O)c(O)c(C=O)c2c(O)c1-c1c(C)cc2c(C(C)C)c(O)c(O)c(C=O)c2c1O [gossypol, Gossypol] | – | – | – | – | – | – | – | – | – | – | – | – | – | – | – | – | – | – | – | – | Ki [6]: 1900 nM; Ki [7]: 4.2 µM
